Source: US20260159512A1, “BCAT2 INHIBITORS” (AGIOS PHARMACEUTICALS, INC., priority 2021, published 2026)

Tests used:
Settings in all cases: average where tested multiple times
BCAT2 [1] = target: T1, BCAT2 (Homo sapiens, UniProt O15382); assay: BCAT2 in vitro cell inhibition using engineered A549 cells (KMV cell assay, 13C6-KMV by LC-MS/MS); format: cell-based; design: The result was an engineered A549 cell line that expressed endogenous BCAT2; endogenous in cells; host or cells: A549 cells with MUT and BCAT1 knocked out by CRISPR/CAS9
T1 sequence (O15382 28-392): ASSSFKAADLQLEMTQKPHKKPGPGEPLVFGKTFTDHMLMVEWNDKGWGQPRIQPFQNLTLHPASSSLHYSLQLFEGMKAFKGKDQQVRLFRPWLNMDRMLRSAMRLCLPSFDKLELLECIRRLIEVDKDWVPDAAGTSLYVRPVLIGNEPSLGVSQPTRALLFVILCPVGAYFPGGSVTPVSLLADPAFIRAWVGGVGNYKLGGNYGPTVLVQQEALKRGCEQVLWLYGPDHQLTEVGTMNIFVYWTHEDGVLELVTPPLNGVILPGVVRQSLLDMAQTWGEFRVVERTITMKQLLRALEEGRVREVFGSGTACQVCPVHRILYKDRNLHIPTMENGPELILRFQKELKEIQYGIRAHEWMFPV

hBCAT1 = target: T2, hBCAT1 (Homo sapiens, UniProt P54687); assay: BCAT1 in vitro enzyme inhibition assay (resazurin/diaphorase-coupled fluorescence); format: biochemical
T2 sequence (P54687 1-386): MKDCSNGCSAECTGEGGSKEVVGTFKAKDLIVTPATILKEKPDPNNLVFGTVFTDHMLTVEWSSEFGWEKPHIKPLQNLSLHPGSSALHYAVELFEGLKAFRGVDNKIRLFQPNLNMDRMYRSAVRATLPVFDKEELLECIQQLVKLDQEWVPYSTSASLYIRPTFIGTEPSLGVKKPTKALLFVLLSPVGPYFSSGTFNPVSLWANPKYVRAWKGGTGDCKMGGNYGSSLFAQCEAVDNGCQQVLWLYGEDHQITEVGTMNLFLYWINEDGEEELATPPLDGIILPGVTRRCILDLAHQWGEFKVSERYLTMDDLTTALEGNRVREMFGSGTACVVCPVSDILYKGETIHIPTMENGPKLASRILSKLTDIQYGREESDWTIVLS
Summary of the method: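 Ten-point, 3-fold compound series (top final 100 μM, delivered 1:50 from 50× DMSO stocks) tested against hBCAT1. Inhibition detected via diaphorase-coupled resazurin fluorescence, duplicate wells, with values from repeated runs averaged.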

BCAT2 [2] = target: T1, BCAT2; assay: BCAT2 in vitro enzyme inhibition assay (resazurin/diaphorase-coupled fluorescence); format: biochemical
Summary of the method: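 Coupled fluorescence readout: glutamate formed from L-leucine/α-ketoglutarate transamination drives GDH/NAD/diaphorase reduction of resazurin (Ex 540/Em 590). Human BCAT2 was first exposed 1 h at room temperature to compound, top final 100 μM in 3-fold, 10-point series; substrate reaction ran 1 h before SDS quench, in technical duplicate with DMSO max and enzyme-free min controls.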

## CC(C)Cc1nc2cnc(-c3ccccc3CC#N)cc2n1[C@@H]1CCC[C@H](NC(=O)c2ccc(Cl)s2)C1 [Example 332, 5-chloro-N-((1S,3R)-3-(6-(2-(cyanomethyl)phenyl)-2-isobutyl-1H-imidazo[4,5-c]pyridin-1-yl)cyclohexyl)thiophene-2-carboxamide]
BCAT2 [1]
  IC50: 500 to 1000 nM
hBCAT1
  IC50: 500 to 1000 nM
BCAT2 [2]
  IC50: 100 to 500 nM

## CC(C)Cc1nc2cnc(-n3ccc(N)n3)cc2n1[C@@H]1CCC[C@H](NC(=O)c2ncc(Cl)s2)C1 [Example 334, N-((1S,3R)-3-(6-(3-amino-1H-pyrazol-1-yl)-2-isobutyl-1H-imidazo[4,5-c]pyridin-1-yl)cyclohexyl)-5-chlorothiazole-2-carboxamide]
BCAT2 [1]
  IC50: 500 to 1000 nM
hBCAT1
  IC50: < 500 nM
BCAT2 [2]
  IC50: ≤ 100 nM

## CC(C)Cc1nc2cnc(-n3ncc(CO)n3)cc2n1[C@@H]1CCC[C@H](NC(=O)c2ncc(Cl)s2)C1 [Example 337, 5-chloro-N-((1S,3R)-3-(6-(4-(hydroxymethyl)-2H-1,2,3-triazol-2-yl)-2-isobutyl-1H-imidazo[4,5-c]pyridin-1-yl)cyclohexyl)thiazole-2-carboxamide]
BCAT2 [1]
  IC50: 500 to 1000 nM
hBCAT1
  IC50: < 500 nM
BCAT2 [2]
  IC50: ≤ 100 nM

## O=C(N[C@H]1CCC[C@@H](n2c(-c3c(O)cccc3F)nc3cnc(-c4nc[nH]n4)cc32)C1)c1ccc(Cl)s1 [Example 338, 5-chloro-N-((1S,3R)-3-(2-(2-fluoro-6-hydroxyphenyl)-6-(1H-1,2,4-triazol-3-yl)-1H-imidazo[4,5-c]pyridin-1-yl)cyclohexyl)thiophene-2-carboxamide]
BCAT2 [1]
  IC50: ≤ 100 nM
hBCAT1
  IC50: < 500 nM
BCAT2 [2]
  IC50: ≤ 100 nM

## O=C(N[C@H]1CCC[C@@H](n2c(-c3c(O)cccc3F)nc3cnc(-c4nc[nH]n4)cc32)C1)c1ncc(Cl)s1 [Example 339, 5-chloro-N-((1S,3R)-3-(2-(2-fluoro-6-hydroxyphenyl)-6-(1H-1,2,4-triazol-3-yl)-1H-imidazo[4,5-c]pyridin-1-yl)cyclohexyl)thiazole-2-carboxamide]
BCAT2 [1]
  IC50: ≤ 100 nM
hBCAT1
  IC50: < 500 nM
BCAT2 [2]
  IC50: ≤ 100 nM

## O=C(N[C@H]1CCC[C@@H](n2c(-c3ccccc3O)nc3cnc(-c4nc[nH]n4)cc32)C1)c1ncc(Cl)s1 [Example 340, 5-chloro-N-((1S,3R)-3-(2-(2-hydroxyphenyl)-6-(1H-1,2,4-triazol-3-yl)-1H-imidazo[4,5-c]pyridin-1-yl)cyclohexyl)thiazole-2-carboxamide]
BCAT2 [1]
  IC50: ≤ 100 nM
hBCAT1
  IC50: < 500 nM
BCAT2 [2]
  IC50: ≤ 100 nM

## C#Cc1ccc(C(=O)N[C@H]2CCC[C@@H](n3c(CC(C)C)nc4cnc(-c5nc[nH]n5)cc43)C2)s1 [Example 341, 5-ethynyl-N-((1S,3R)-3-(2-isobutyl-6-(1H-1,2,4-triazol-3-yl)-1H-imidazo[4,5-c]pyridin-1-yl)cyclohexyl)thiophene-2-carboxamide]
BCAT2 [1]
  IC50: ≤ 100 nM
hBCAT1
  IC50: 1000 to 5000 nM
BCAT2 [2]
  IC50: ≤ 100 nM

## CC(C)Cc1nc2cnc(-c3nc[nH]n3)cc2n1[C@@H]1CCC[C@H](NC(=O)c2ccc(C(F)(F)F)s2)C1 [Example 342, N-((1S,3R)-3-(2-isobutyl-6-(1H-1,2,4-triazol-3-yl)-1H-imidazo[4,5-c]pyridin-1-yl)cyclohexyl)-5-(trifluoromethyl)thiophene-2-carboxamide]
BCAT2 [1]
  IC50: ≤ 100 nM
hBCAT1
  IC50: < 500 nM
BCAT2 [2]
  IC50: ≤ 100 nM

## COc1ccc(F)c(-c2nc3cnc(-c4nc[nH]n4)cc3n2[C@@H]2CCC[C@H](NC(=O)c3ccc(Cl)s3)C2)c1 [Example 343, 5-chloro-N-((1S,3R)-3-(2-(2-fluoro-5-methoxyphenyl)-6-(1H-1,2,4-triazol-3-yl)-1H-imidazo[4,5-c]pyridin-1-yl)cyclohexyl)thiophene-2-carboxamide]
BCAT2 [1]
  IC50: 100 to 500 nM
hBCAT1
  IC50: 1000 to 5000 nM
BCAT2 [2]
  IC50: ≤ 100 nM

## CC(C)Cc1nc2cnc(-c3nc[nH]n3)cc2n1[C@@H]1CCC[C@H](NC(=O)c2ccc(C#N)s2)C1 [Example 344, 5-cyano-N-((1S,3R)-3-(2-isobutyl-6-(1H-1,2,4-triazol-3-yl)-1H-imidazo[4,5-c]pyridin-1-yl)cyclohexyl)thiophene-2-carboxamide]
BCAT2 [1]
  IC50: ≤ 100 nM
hBCAT1
  IC50: < 500 nM
BCAT2 [2]
  IC50: ≤ 100 nM

## N#Cc1ccc(F)c(-c2nc3cnc(-c4nc[nH]n4)cc3n2[C@@H]2CCC[C@H](NC(=O)c3ccc(Cl)s3)C2)c1 [Example 345, 5-chloro-N-((1S,3R)-3-(2-(5-cyano-2-fluorophenyl)-6-(1H-1,2,4-triazol-3-yl)-1H-imidazo[4,5-c]pyridin-1-yl)cyclohexyl)thiophene-2-carboxamide]
BCAT2 [1]
  IC50: 500 to 1000 nM
hBCAT1
  IC50: 500 to 1000 nM
BCAT2 [2]
  IC50: 100 to 500 nM

## CC(C)Cc1nc2cnc(-n3cc(CO)nn3)cc2n1[C@@H]1CCC[C@H](NC(=O)c2ncc(Cl)s2)C1 [Example 346, 5-chloro-N-((1S,3R)-3-(6-(4-(hydroxymethyl)-1H-1,2,3-triazol-1-yl)-2-isobutyl-1H-imidazo[4,5-c]pyridin-1-yl)cyclohexyl)thiazole-2-carboxamide]
BCAT2 [1]
  IC50: > 1000 nM
hBCAT1
  IC50: > 5000 nM
BCAT2 [2]
  IC50: 100 to 500 nM

## COc1cccc(F)c1-c1nc2cnc(-c3nc[nH]n3)cc2n1[C@@H]1CCC[C@H](NC(=O)c2ccc(Cl)s2)C1 [Example 347, 5-chloro-N-((1S,3R)-3-(2-(2-fluoro-6-methoxyphenyl)-6-(1H-1,2,4-triazol-3-yl)-1H-imidazo[4,5-c]pyridin-1-yl)cyclohexyl)thiophene-2-carboxamide]
BCAT2 [1]
  IC50: ≤ 100 nM
hBCAT1
  IC50: < 500 nM
BCAT2 [2]
  IC50: ≤ 100 nM

## COc1cccc(-c2nc3cnc(-c4nc[nH]n4)cc3n2[C@@H]2CCC[C@H](NC(=O)c3ccc(Cl)s3)C2)c1F [Example 348, 5-chloro-N-((1S,3R)-3-(2-(2-fluoro-3-methoxyphenyl)-6-(1H-1,2,4-triazol-3-yl)-1H-imidazo[4,5-c]pyridin-1-yl)cyclohexyl)thiophene-2-carboxamide]
BCAT2 [1]
  IC50: ≤ 100 nM
hBCAT1
  IC50: < 500 nM
BCAT2 [2]
  IC50: ≤ 100 nM

## CC(C)Cc1nc2cnc(-c3nc[nH]n3)cc2n1[C@@H]1CCC[C@H](NC(=O)c2ncc(C#N)s2)C1 [Example 349, 5-cyano-N-((1S,3R)-3-(2-isobutyl-6-(1H-1,2,4-triazol-3-yl)-1H-imidazo[4,5-c]pyridin-1-yl)cyclohexyl)thiazole-2-carboxamide]
BCAT2 [1]
  IC50: 100 to 500 nM
hBCAT1
  IC50: < 500 nM
BCAT2 [2]
  IC50: ≤ 100 nM

## CC(C)Cc1nc2cnc(-n3ncc(C(C)O)n3)cc2n1[C@@H]1CCC[C@H](NC(=O)c2ncc(Cl)s2)C1 (stereo partly drawn) [Example 350, 5-chloro-N-((1S,3R)-3-(6-(4-(1-hydroxyethyl)-2H-1,2,3-triazol-2-yl)-2-isobutyl-1H-imidazo[4,5-c]pyridin-1-yl)cyclohexyl)thiazole-2-carboxamide]
BCAT2 [1]
  IC50: 100 to 500 nM
hBCAT1
  IC50: 500 to 1000 nM
BCAT2 [2]
  IC50: ≤ 100 nM

## COc1ccc(-c2nc3cnc(-c4nc[nH]n4)cc3n2[C@@H]2CCC[C@H](NC(=O)c3ccc(Cl)s3)C2)c(F)c1 [Example 351, 5-chloro-N-((1S,3R)-3-(2-(2-fluoro-4-methoxyphenyl)-6-(1H-1,2,4-triazol-3-yl)-1H-imidazo[4,5-c]pyridin-1-yl)cyclohexyl)thiophene-2-carboxamide]
BCAT2 [1]
  IC50: 500 to 1000 nM
hBCAT1
  IC50: 1000 to 5000 nM
BCAT2 [2]
  IC50: 100 to 500 nM

## COc1ccccc1-c1nc2cnc(-c3nc[nH]n3)cc2n1[C@@H]1CCC[C@H](NC(=O)c2ncc(Cl)s2)C1 [Example 352, 5-chloro-N-((1S,3R)-3-(2-(2-methoxyphenyl)-6-(1H-1,2,4-triazol-3-yl)-1H-imidazo[4,5-c]pyridin-1-yl)cyclohexyl)thiazole-2-carboxamide]
BCAT2 [1]
  IC50: ≤ 100 nM
hBCAT1
  IC50: < 500 nM
BCAT2 [2]
  IC50: ≤ 100 nM

## O=C(N[C@H]1CCC[C@@H](n2c(-c3c(O)cccc3F)nc3cnc(-n4nccn4)cc32)C1)c1ncc(Cl)s1 [Example 354, 5-chloro-N-((1S,3R)-3-(2-(2-fluoro-6-hydroxyphenyl)-6-(2H-1,2,3-triazol-2-yl)-1H-imidazo[4,5-c]pyridin-1-yl)cyclohexyl)thiazole-2-carboxamide]
BCAT2 [1]
  IC50: ≤ 100 nM
hBCAT1
  IC50: < 500 nM
BCAT2 [2]
  IC50: ≤ 100 nM
